# How the values were obtained:
# SiHa = assay: Antiproliferative activity against human SiHa cells assessed as cell growth inhibition incubated for 48 hrs by sulforhodamine B assay; assay type: functional
# PANC-1 = assay: Antiproliferative activity against human PANC-1 cells assessed as cell growth inhibition incubated for 48 hrs by sulforhodamine B assay; assay type: functional
# L1210 [1] = assay: Antiproliferative activity against mouse L1210 cells assessed as reduction in cell viability by MTT assay; assay type: functional, cell-based
# CAKI-1 = assay: Anticancer activity against human CAKI-1 cells assessed as cell growth inhibition; assay type: functional; settings: pooled result: one value given for 3 cell lines, strains, targets or settings
# [2] = Cytotoxicity against Chinese hamster CHO cells assessed as reduction in cell viability by MTT assay; assay type: toxicity, cell-based, Cricetulus griseus
# HL-60 [3] = assay: Cytotoxicity against human HL-60 cells assessed as reduction in cell viability by MTT assay; assay type: functional, cell-based
# L1210 [4] = assay: Cytotoxicity against mouse L1210 cells assessed as reduction in cell viability by MTT assay; assay type: functional, cell-based
# Hep 3B2 = assay: Antiproliferative activity against human Hep3B cells assessed as reduction in cell viability; assay type: functional, cell-based
# SMMC-7721 [5] = assay: Antiproliferative activity against human SMMC-7721 cells assessed as reduction in cell viability incubated for 24 hrs by MTT assay; assay type: functional, cell-based; settings: SMMC-7721, 24 h
# [6] = Cytotoxicity against Chinese hamster CHO cells assessed as reduction in cell viability incubated for 48 hrs by MTT assay; assay type: toxicity, cell-based, Cricetulus griseus
# HL-60 [7] = assay: Cytotoxicity against human HL-60 cells assessed as reduction in cell viability incubated for 48 hrs by MTT assay; assay type: functional, cell-based; settings: HL-60, 48 h
# L1210 [8] = assay: Cytotoxicity against mouse L1210 cells assessed as reduction in cell viability incubated for 48 hrs by MTT assay; assay type: functional, cell-based; settings: L1210, 48 h
# SMMC-7721 [9] = assay: Antiproliferative activity against human SMMC-7721 cells assessed as reduction in cell viability; assay type: functional, cell-based
# L1210 [10] = assay: Antiproliferative activity against mouse L1210 cells assessed as reduction in cell viability; assay type: functional, cell-based
# HL-60 [11] = assay: Antiproliferative activity against human HL-60 cells assessed as reduction in cell viability; assay type: functional, cell-based
# CAPAN-1 = assay: Antiproliferative activity against human CAPAN-1 cells assessed as reduction in cell viability; assay type: functional, cell-based
# L1210 [12] = assay: Anticancer activity against mouse L1210 cells assessed as reduction in cell viability by MTT assay; assay type: functional, cell-based
# CT26 = assay: Antitumor activity against mouse CT26 cells assessed as reduction in cell viability incubated for 4 hrs by MTT assay; assay type: functional, cell-based; settings: CT26, 4 h
# A549 = assay: Antitumor activity against human A549 cells assessed as reduction in cell viability incubated for 4 hrs by MTT assay; assay type: functional, cell-based; settings: A549, 4 h
# SK-MEL3 = assay: Anticancer activity against human SK-MEL3 cells assessed as reduction in cell viability incubated for 72 hrs by MTT assay; assay type: functional, cell-based; settings: SK-MEL3, 72 h
# MCF7 = assay: Anticancer activity against human MCF7 cells assessed as reduction in cell viability incubated for 72 hrs by MTT assay; assay type: functional, cell-based; settings: MCF7, 72 h
# A-431 = assay: Anticancer activity against human A-431 cells assessed as reduction in cell viability incubated for 72 hrs by MTT assay; assay type: functional, cell-based; settings: A-431, 72 h
# EJ = assay: Anticancer activity against human EJ cells assessed as reduction in cell viability incubated for 72 hrs by MTT assay; assay type: functional, cell-based
# KB = assay: Anticancer activity against human KB cells assessed as reduction in cell viability incubated for 72 hrs by MTT assay; assay type: functional, cell-based
# SW480 = assay: Anticancer activity against human SW480 cells assessed as reduction in cell viability incubated for 72 hrs by MTT assay; assay type: functional, cell-based; settings: SW480, 72 h
structure (smiles),measurement,setting,value
CCn1cc(C(=O)O)c(=O)c2cnc(N3CCN(C(=O)CCSc4nnnn4-c4ccc(Br)cc4)CC3)nc21,GI50,SiHa,0.06 µM
same,GI50,PANC-1,0.06 µM
CCN1CCN(c2cc3c(cc2F)c(=O)c(-c2nnc(S)n2N)cn3C2CC2)CC1,IC50,L1210 [1],≤ 50 µM
C=C1CC(CN2CCN(c3cc4c(cc3F)c(=O)c(C(=O)O)cn4CC)CC2)(c2ccc(OC)cc2)OC1=O (stereo not given),GI50,CAKI-1,6.46 µM
COc1cc(/C=N/NC(=O)c2cn(C3CC3)c3cc(N4CCNCC4)c(F)cc3c2=O)cc(OC)c1OC,IC50,[2],25 µM
same,IC50,HL-60 [3],25 µM
same,IC50,L1210 [4],25 µM
C=C1CC(CN2CCN(c3cc4c(cc3F)c(=O)c(C(=O)O)cn4CC)CC2)(c2ccccc2)OC1=O (stereo not given),GI50,CAKI-1,3.39 µM
CCn1cc(-c2nn(CN(C)C)c(=S)o2)c(=O)c2cc(F)c(N3CCN(C)CC3)cc21,IC50,Hep 3B2,8.4 µM
C[C@H]1COc2c(N3CCN(C)CC3)c(F)cc3c(=O)c(-c4nnc(S)o4)cn1c23,IC50,[2],> 50 µM
same,IC50,HL-60 [3],> 50 µM
same,IC50,SMMC-7721 [5],> 50 µM
CC1COc2c(N3CCN(C)CC3)c(F)cc3c(=O)c(-c4nn(CN(C)C)c(=S)n4/N=C/c4ccccc4O)cn1c23 (stereo not given),IC50 at 48 h,[6],0.14 µM
same,IC50,HL-60 [7],0.14 µM
same,IC50,L1210 [8],0.14 µM
CCn1cc(-c2nc(SCc3nnc(-c4ccc(F)cc4)o3)n(CN(C)C)n2)c(=O)c2cc(F)c(N3CCN(C)CC3)cc21,IC50,SMMC-7721 [9],1.5 µM
same,IC50,L1210 [10],1.5 µM
same,IC50,HL-60 [11],1.5 µM
same,IC50,Hep 3B2,1.5 µM
same,IC50,CAPAN-1,1.5 µM
CCN1CCN(c2cc3c(cc2F)c(=O)c(-c2nnc4sc(-c5cn(C6CC6)c6cc(N7CCN(C)CC7)c(F)cc6c5=O)nn24)cn3C2CC2)CC1,IC50,L1210 [1],2.5 µM
COc1cc(/C=N/n2c(-c3cn4c5c(c(N6CCN(C)CC6)c(F)cc5c3=O)OCC4C)nn(CN(C)C)c2=S)ccc1O (stereo not given),IC50 at 48 h,[6],0.14 µM
same,IC50,HL-60 [7],0.14 µM
same,IC50,L1210 [8],0.14 µM
COc1ccc(/C=N/NC(=O)c2cn(C3CC3)c3cc(N4CCNCC4)c(F)cc3c2=O)cc1,IC50,[2],25 µM
same,IC50,HL-60 [3],25 µM
same,IC50,L1210 [4],25 µM
CCN1CCN(c2cc3c(cc2F)c(=O)c(-c2nn4c(-c5cn(C6CC6)c6cc(N7CCN(CC)CC7)c(F)cc6c5=O)nnc4s2)cn3C2CC2)CC1,IC50,L1210 [1],1.2 µM
O=C(O)c1cn(C2CC2)c2cc(N3CCN(C(=O)CCSc4nnnn4-c4ccc(Br)cc4)CC3)c(F)cc2c1=O,GI50,SiHa,0.06 µM
same,GI50,PANC-1,0.06 µM
COc1ccccc1-c1nnc(CSc2nnc(-c3cn4c5c(c(N6CC[N+](C)(C)CC6)c(F)cc5c3=O)OC[C@@H]4C)o2)o1,IC50,[2],0.41 µM
same,IC50,HL-60 [3],1.6 µM
same,IC50,SMMC-7721 [5],0.82 µM
COc1ccc(/C=N/NC(=O)c2cn(C3CC3)c3cc(N4CCNCC4)c(F)cc3c2=O)cc1O,IC50,[2],25 µM
same,IC50,HL-60 [3],25 µM
same,IC50,L1210 [4],25 µM
O=c1c(-c2n[nH]c3cc(-c4ccc(O)c(O)c4)nn23)cn(C2CC2)c2cc(N3CCNCC3)c(F)cc12,IC50,L1210 [12],0.14 µM
O=C(N/N=C/c1ccc([N+](=O)[O-])cc1)c1cn(C2CC2)c2cc(N3CCNCC3)c(F)cc2c1=O,IC50,[2],25 µM
same,IC50,HL-60 [3],25 µM
same,IC50,L1210 [4],25 µM
COc1cc(/C=N/n2c(-c3cn4c5c(c(N6CCN(C)CC6)c(F)cc5c3=O)OCC4C)n[nH]c2=S)ccc1O (stereo not given),IC50 at 48 h,[6],10.5 µM
same,IC50,HL-60 [7],10.5 µM
same,IC50,L1210 [8],10.5 µM
CCn1cc(C(=O)O)c(=O)c2cnc(N3CCN(C(=O)CCSc4nnnn4Cc4ccccc4)CC3)nc21,GI50,SiHa,0.06 µM
same,GI50,PANC-1,0.06 µM
COc1ccccc1-c1nnc(CSc2nnc(-c3cn4c5c(c(N6CCN(C)CC6)c(F)cc5c3=O)OC[C@@H]4C)o2)o1,IC50,[2],1 µM
same,IC50,HL-60 [3],2.2 µM
same,IC50,SMMC-7721 [5],1.3 µM
COc1ccc(/C=N/n2c(-c3cn4c5c(c(N6CCN(C)CC6)c(F)cc5c3=O)OCC4C)n[nH]c2=S)cc1O (stereo not given),IC50 at 48 h,[6],10.5 µM
same,IC50,HL-60 [7],10.5 µM
same,IC50,L1210 [8],10.5 µM
CCn1cc(-c2nnc(SCc3nnc(-c4ccccc4OC)o3)[nH]2)c(=O)c2cc(F)c(N3CCN(C)CC3)cc21,IC50,SMMC-7721 [9],3.8 µM
same,IC50,L1210 [10],3.8 µM
same,IC50,HL-60 [11],3.8 µM
same,IC50,Hep 3B2,3.8 µM
same,IC50,CAPAN-1,3.8 µM
CCN1CCN(c2cc3c(cc2F)c(=O)c(-c2nnc4sc(-c5cn(C6CC6)c6cc(N7CCNCC7)c(F)cc6c5=O)nn24)cn3C2CC2)CC1,IC50,L1210 [1],0.2 µM
O=C(N/N=C/c1ccccc1)c1cn(C2CC2)c2cc(N3CCNCC3)c(F)cc2c1=O,IC50,[2],25 µM
same,IC50,HL-60 [3],25 µM
same,IC50,L1210 [4],25 µM
O=C(O)c1cn(C2CC2)c2cc(N3CCN(C(=O)CCSc4nnnn4Cc4ccccc4)CC3)c(F)cc2c1=O,GI50,SiHa,0.06 µM
same,GI50,PANC-1,0.06 µM
CCn1cc(C(=O)O)c(=O)c2cc(F)c(N3CCN(CP(=O)(c4ccccc4)c4ccccc4)CC3)cc21,IC50,CT26,150 µM
same,IC50,A549,150 µM
COc1ccc(/C=N/n2c(-c3cn4c5c(c(N6CCN(C)CC6)c(F)cc5c3=O)OCC4C)nn(CN(C)C)c2=S)cc1O (stereo not given),IC50 at 48 h,[6],0.14 µM
same,IC50,HL-60 [7],0.14 µM
same,IC50,L1210 [8],0.14 µM
CCn1cc(-c2nn(CNc3ccc(Cl)cc3)c(=S)o2)c(=O)c2cc(F)c(N3CCN(C)CC3)cc21,IC50,Hep 3B2,45.4 µM
O=C(N/N=C/c1ccccc1O)c1cn(C2CC2)c2cc(N3CCNCC3)c(F)cc2c1=O,IC50,[2],25 µM
same,IC50,HL-60 [3],25 µM
same,IC50,L1210 [4],25 µM
CC1COc2c(N3CCN(C)CC3)c(F)cc3c(=O)c(-c4n[nH]c5cc(-c6ccc(O)c(O)c6)nn45)cn1c23 (stereo not given),IC50,L1210 [12],1.2 µM
CC1COc2c(N3CCN(C)CC3)c(F)cc3c(=O)c(-c4n[nH]c(=S)n4/N=C/c4ccccc4O)cn1c23 (stereo not given),IC50 at 48 h,[6],10.5 µM
same,IC50,HL-60 [7],10.5 µM
same,IC50,L1210 [8],10.5 µM
CCn1cc(C(=O)O)c(=O)c2cc(F)c(N3CCNCC3)cc21 [NORFLOXACIN],IC50,SK-MEL3,> 128 µM
same,IC50,MCF7,> 128 µM
same,IC50,A-431,> 128 µM
same,IC50,EJ,> 128 µM
same,IC50,KB,> 128 µM
same,IC50,SW480,> 128 µM
same,IC50,CT26,330 µM
same,IC50,A549,330 µM
same,IC50,L1210 [1],> 150 µM
CC1COc2c(N3CCN(C)CC3)c(F)cc3c(=O)c(-c4nnc5n4N=C(c4ccc(O)c(O)c4)CS5)cn1c23 (stereo not given),IC50,L1210 [12],1.8 µM
CCn1cc(C(=O)O)c(=O)c2cc(F)c(N3CCN(CP(c4ccccc4)c4ccccc4)CC3)cc21,IC50,CT26,150 µM
same,IC50,A549,150 µM
O=C(O)c1cn(C2CC2)c2cc(N3CCNCC3)c(F)cc2c1=O [CIPROFLOXACIN],IC50,SK-MEL3,> 128 µM
same,IC50,MCF7,> 128 µM
same,IC50,A-431,> 128 µM
same,IC50,EJ,> 128 µM
same,IC50,KB,> 128 µM
same,IC50,SW480,> 128 µM
same,IC50,CT26,330 µM
same,IC50,A549,330 µM
same,IC50,[2],> 150 µM
same,IC50,HL-60 [3],> 150 µM
same,IC50,L1210 [4],> 150 µM
same,IC50,L1210 [1],> 150 µM
CCn1cc(C(=O)O)c(=O)c2cnc(N3CCN(C(=O)CCSc4nnnn4-c4ccc(F)c(F)c4F)CC3)nc21,GI50,SiHa,0.06 µM
same,GI50,PANC-1,0.06 µM
O=C(N/N=C/c1ccc(F)cc1)c1cn(C2CC2)c2cc(N3CCNCC3)c(F)cc2c1=O,IC50,[2],25 µM
same,IC50,HL-60 [3],25 µM
same,IC50,L1210 [4],25 µM
CCn1cc(-c2nnc(SCc3nnc(-c4ccc(F)cc4)o3)[nH]2)c(=O)c2cc(F)c(N3CCN(C)CC3)cc21,IC50,SMMC-7721 [9],3.8 µM
same,IC50,L1210 [10],3.8 µM
same,IC50,HL-60 [11],3.8 µM
same,IC50,Hep 3B2,3.8 µM
same,IC50,CAPAN-1,3.8 µM
O=c1c(-c2nnc3n2N=C(c2ccc(O)c(O)c2)CS3)cn(C2CC2)c2cc(N3CCNCC3)c(F)cc12,IC50,L1210 [12],1.4 µM
